Patent publication US11453841B2, “Functionalized branched alcohols as non-ionic sugar surfactants” (ExxonMobil Technology and Engineering Company, priority 2019, dated 2022)

Test: Surface tension isotherms
Type: physicochemical
Details: 22° C.
Protocol: Surface tension isotherms were measured for selected functionalized branched alcohols EXXAL™ 11-Glucose-3(EO )Linker (also referred to herein as “EXXAL™ 11-EO3-Glucoside”) and EXXAL™ 11-Galactose-3(EO)Linker, as well as comparative alkoxylated alcohol glycoside n-undecanol-glucose-3(EO)Linker (also referred to herein as “Undecanol-EO3-Glucoside”). The names, chemical structures, and weight average molecular weights of these functionalized branched alcohols are as follows:
Tables 7, 8 and 9 immediately below provide surface tension isotherms for the compounds 1, 2, and 3 measured at 22° C. Specifically, Table 7 provides surface tension data of n-undecanol-glucose-3(EO)Linker, Table 8 provides surface tension data of EXXAL™ 11-Gluscose-3(EO)Linker, and Table 9 provides surface tension data of EXXAL™ 11-Galactose-3(EO)Linker.

## CCCCCCCCCCCOCCOCCOCCOC1OC(CO)C(O)C(O)C1O (stereo not drawn) [Compound 1, n-undecanol-glucose-3(EO)Linker]
Molarity 0.000125058 mol/L
  Surface Tension (γ): 41.0 mN/m
Molarity 0.000339945 mol/L
  Surface Tension (γ): 34.5 mN/m
Molarity 0.000924077 mol/L
  Surface Tension (γ): 33.2 mN/m
Molarity 0.001928806 mol/L
  Surface Tension (γ): 33.1 mN/m
Molarity 1.69248E−05 mol/L
  Surface Tension (γ): 55.6 mN/m
Molarity 2.29052E−06 mol/L
  Surface Tension (γ): 66.4 mN/m
Molarity 4.60064E−05 mol/L
  Surface Tension (γ): 48.6 mN/m
Molarity 6.22628E−06 mol/L
  Surface Tension (γ): 61.5 mN/m
Molarity 8.42635E−07 mol/L
  Surface Tension (γ): 70.2 mN/m
